Laboratory results from US8137919B2 (Montefiore Medical Center, priority 2008, dated 2012).

Experiments:
Assay type in all cases: cell-based
[1] = test system: SW403 cells; assay: Apoptosis, PI staining and FACS; conditions: 5 microMolar, 72 hours treatment
Experimental: FIG. 4. […] Cell cycle distribution and apoptosis was assessed by PI staining and FACS analysis. Values shown are mean±SEM, n=3, #P<0.05.

[2] = test system: LIM2405, HCT15, and HCT116 (cetuximab resistant cell lines); assay: Proliferative response to EGF, S-phase; conditions: 24 h post EGF treatment (0.5 ng/ml), serum-free
Experimental: (§1) For each cell line, one plate was harvested for determination of t=0 absorbance values. Viable cells were determined 72 h post-treatment using the MTT assay by measurement of absorbance at 570 nm. The relative rate of cell growth for each cell line was factored into the analysis by subtracting the absorbance at time zero from both the control and treatment groups. All the experiments were replicated a minimum of 3 times. For determination of sensitivity to EGF, cells were serum starved for 4 h then treated with 0, 0.5 or 5 ng/ml EGF for 24-72 h.
(§2) To test this, the proliferative response of the 3 most cetuximab-sensitive and 3 most cetuximab-resistant cell lines to exogenous EGF-treatment was examined under serum-free conditions (FIG. 6). […] These findings indicate that a subset of colon tumors exist that are dependent upon ligand activation of EGFR for their growth, and it is these cell lines that are growth inhibited by blockade of ligand binding to the EGFR.

[3] = test system: GEO, LIM1215, and SW403 (cetuximab sensitive cell lines); assay: Proliferative response to EGF, S-phase; conditions: 24 h post EGF treatment (0.5 ng/ml), serum-free
Experimental: as §1, §2

[4] = test system: cetuximab sensitive and resistant cell lines; assay: Growth response to EGF, MTT assay; conditions: 0.5 or 5 ng/ml EGF
Experimental: Cell growth was assayed by MTT assay. Values shown are mean±SEM from a representative experiment, #p<0.05. Experiments were repeated 3 separate times.
as §1

Compound | apoptosis [1] | change in S-phase [2] | change in S-phase [3] | cell growth (MTT) [4]
O=c1[nH]cc(F)c(=O)[nH]1 [5FU, 5-fluoruracil] | approximately 50% |  |  | 
EGF: EGFR activator, EGFR ligand |  | not | significant increase | preferentially increased growth of the cetuximab sensitive cell lines
